Key:
[1] = tested on: woodchuck hepatitis virus (WHV); experiment: Formula (IIa) in combination with entecavir, sequential oral treatment of chronic WHV carrier woodchucks (Example 3); assay type: in vivo, woodchuck (Marmota monax)
Source text: Ten (10) woodchucks chronically infected with WHV were used. Woodchucks were born in captivity and were inoculated at 3 days of age with cWHV7P2a inoculum, then reared until 11 months of age. Prior to the study, woodchucks were confirmed as established chronic carriers of WHV based on established criteria including the presence of WHV surface antigen (WHsAg), antibody against […], and WHV DNA. Woodchucks used in the study were of both gender and approximately between 12 and 14 months of age at the start of the study.
Two (2) groups of five (5) chronic WHV carrier woodchucks each were used in the study:
Group 1 was orally treated for 4 weeks with ETV at a daily dose of 0.5 mg/kg starting at T0, followed by add-on treatment with Formula (IIa) for 12 weeks at a daily dose of 30 mg/kg. Woodchucks were then followed for a total of 24 weeks.
Group 2 was orally treated for 12 weeks with Formula (IIa) at a daily dose of 30 mg/kg starting at T0, followed by add-on treatment with ETV for 4 weeks at a daily dose of 0.5 mg/kg. Woodchucks were then also followed for a total of 24 weeks.
Formula (IIa) was supplied as a pre-weighed powder in individual containers. An amount of powder sufficient to treat all 10 pre-weighed woodchucks per day with Formula (IIa) was mixed directly with woodchuck diet powder (Dyets Inc., Bethlehem, Pa.) and then suspended with HPLC water. The drug was orally administered with a dose syringe at T0 (Group 2) or after 4 weeks of treatment with ETV (Group 1), and thereafter every day for 12 weeks (84 days). Drug dosing was then followed by an extra 2 ml of woodchuck liquid diet to ensure complete consumption of Formula (IIa).
ETV was provided as powder. An amount of powder sufficient to treat all 10 woodchucks per day was suspended in isotonic saline at a concentration of 0.5 mg/ml. A volume (ml) of drug solution equivalent to the body weight (kg) of an individual woodchuck was then mixed with approximately 3-5 ml of woodchuck liquid diet and administered orally with a dose syringe at T0 (Group 1) or after 12 weeks of treatment with Formula (IIa) (Group 2), and thereafter every day for 4 weeks (28 days). ETV dosing was followed by an extra 2 ml of woodchuck liquid diet to ensure complete consumption of drug.
Prior to administration of Formula (IIa) or ETV at T0, then weekly until the end of the study at week 24, whole blood samples were drawn from each woodchuck under ketamine/xylazine anesthesia for determinations of serum WHV DNA, WHsAg, and anti-WHs (see Summary Table below). […] Blood samples were kept at room temperature following collection and serum harvested upon observation of clot retraction. Harvested serum was transferred to microcentrifuge tubes and stored frozen at −70° C. until use.
The induction of an innate immune response in peripheral blood and liver of woodchucks by combination treatment with Formula (IIa) and ETV were determined via real time PCR-based assays. Whole blood samples were obtained prior to the start of treatment with Formula (IIa) at T0, and then at weeks 4, 10, 16, 20, and 24 (Group 1) or at weeks 6, 12, 16, 20, and 24 (Group 2) (see Summary Table below). Whole blood was drawn into PAXgene blood tubes at the indicated time points and stored at −70° C. until use. Total RNA was isolated from whole blood and treated with DNase using the PAXgene Blood miRNA Kit (Quiagen). This was followed by reverse transcription of mRNA into cDNA and amplification of host immune response genes by real time PCR. Woodchuck cytokine and interferon-stimulated genes included IFN-α, IFN-β, interleukin 6 (IL-6), 2′-5′-oligoadenylate synthetase 1 (OAS-1), interferon-induced 17 kDa protein (ISG15), and interferon gamma-induced protein 10 (IP-10or CXCL10). Woodchuck 18S rRNA expression was used to normalize target gene expression. […]

[2] = tested on: wild type HBV or resistant variants of HBV (polymerase M204V, M204I, L180M, L180M/M204V, N236T); experiment: Antiviral assays in cells chronically infected with wild type HBV or resistant variants (Example 4); assay type: cell-based; settings: added to the cells daily for nine consecutive days
Protocol: Antiviral assays were carried out in cells chronically infected with resistant variants of HBV. In order to gauge the efficacy of Formula (IIa) and the antiviral nucleoside analogs lamivudine (3TC) and adefovir dipivoxil (ADV) against the tested strains, the in vitro activity (EC50, μM) was determined using six different cell samples chronically infected with HBV. Each cell sample was infected with either wild type HBV or a resistant variant of HBV, wherein the resistant variants comprise mutations in the HBV polymerase (P) at the following amino acid positions: M204V, M204I, L180M, L180M/M204V, and N236T. In each assay, Formula (IIa), 3TC, or ADV was added to the cells daily for nine consecutive days.

[3] = tested on: woodchuck hepatitis virus (WHV); experiment: Antiviral activity of Formula (Ia), intraperitoneal, in chronic WHV carrier woodchucks (Example 1); assay type: in vivo, woodchuck (Marmota monax)
Protocol: Three groups of five chronic WHV carrier woodchucks were used in this in this study. Formula (Ia) was administered intraperitoneally to two groups for a total of 4 weeks. Groups for drug treatment received Formula (Ia) at either 10 mg/kg/day or 30 mg/kg/day. The third group received physiological saline intraperitoneally and served as placebo-treated controls.
Blood samples for WHV serology, serum […], and hematological and biochemical profiles were obtained prior to the start of treatment and taken thereafter according to the study design. The body weight of each subject was recorded when the woodchucks were anesthetized and bled. The recorded body weights of the drug-treated woodchucks were compared to the placebo-treated control woodchucks to assess possible drug toxicity. WHsAg and anti-WHs and anti-WHc antibodies were determined qualitatively using established ELISA protocols. Dilutions of serum were used to ensure the detection of these markers […] conditions.
WHV DNA in serum was initially measured by dot blot hybridization and quantified by comparing signals of test specimens and standards of known WHV DNA concentration using a homologous probe. […] Quantitative WHV nucleic acid analyses were also performed using a real-time PCR assay with samples containing serum WHV DNA below the limit of detection by dot blot analysis. […]

C=C1[C@H](CO)[C@@H](O)C[C@@H]1n1cnc2c(=O)[nH]c(N)nc21 [ETV, entecavir, reference compound]
expected suppression of serum viremia ([1]; ETV 0.5 mg/kg daily oral for 4 weeks, expectation from previous studies): 3-4 log10
reductions in serum WHV DNA from pretreatment level during the 4 weeks of ETV ([1]; ETV 0.5 mg/kg daily oral, Group 1): marked reductions
reductions in serum WHsAg from pretreatment level during the 4 weeks of ETV administration ([1]; ETV 0.5 mg/kg, most woodchucks of Group 1): marked reductions

CC(C)(C)C(=O)OCOP(=O)(COCCn1cnc2c(N)ncnc21)OCOC(=O)C(C)(C)C [ADV, adefovir dipivoxil, reference compound]
efficacy against cells infected with wild type and resistant HBV strains (in vitro activity, FIG. 31) [2]: efficacious against cells infected with all the HBV strains tested

COC1[C@@H](OP(=O)(S)OC[C@H]2O[C@@H](n3cnc4c(N)ncnc43)C[C@H]2O)[C@@H](CO)O[C@H]1n1ccc(=O)[nH]c1=O (stereo partly drawn) [Formula (Ia)]
staining intensity of cytoplasmic WHcAg in liver tissues compared to placebo controls ([3]; 30 mg/kg, end of treatment at week 4): significantly decreased
consistent reductions in serum WHsAg and in hepatic expression of WHcAg and WHsAg ([3]; 10 and 30 mg/kg/day, 4 weeks): not observed on a dose-response basis

Reference: patent publication US20180110796A1, “COMPOSITIONS AND METHODS FOR THE TREATMENT OF HBV INFECTION” (Spring Bank Pharmaceuticals, Inc., priority 2015, published 2018)
